Assay results as given in publication PMC4453552 (mBio, 2015).
Read-outs that look alike come from different tables or passages of the source.

Experiments:
N-Flo1p [1] = target: T1, N-Flo1p (Saccharomyces cerevisiae, UniProt P32768); experiment: Fluorescence titration of carbohydrates with nonglycosylated N-Flo1p; type: binding
T1 sequence (P32768 23-271): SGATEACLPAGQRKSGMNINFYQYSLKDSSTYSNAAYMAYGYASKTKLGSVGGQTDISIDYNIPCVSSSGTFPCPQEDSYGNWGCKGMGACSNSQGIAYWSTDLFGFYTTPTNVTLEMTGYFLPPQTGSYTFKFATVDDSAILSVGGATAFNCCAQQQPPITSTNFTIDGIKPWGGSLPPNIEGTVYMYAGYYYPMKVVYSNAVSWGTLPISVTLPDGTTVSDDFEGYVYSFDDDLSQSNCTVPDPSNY

N-Lg-Flo1p [2] = target: T2, N-Lg-Flo1p (Saccharomyces pastorianus, UniProt B3IUB3, P58Q); experiment: Fluorescence titration of carbohydrates with N-Lg-Flo1p; type: binding; details: construct from the CBS1513 strain
T2 sequence (B3IUB3 23-213 P58Q): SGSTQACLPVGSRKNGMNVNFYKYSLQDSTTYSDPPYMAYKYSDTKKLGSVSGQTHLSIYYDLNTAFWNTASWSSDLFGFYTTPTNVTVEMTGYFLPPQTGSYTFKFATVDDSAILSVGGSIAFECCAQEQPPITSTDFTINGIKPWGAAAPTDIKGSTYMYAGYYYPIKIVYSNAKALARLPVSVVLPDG

N-Flo1p [3] = target: T3, N-Flo1p (Saccharomyces cerevisiae, UniProt P32768); experiment: AFM force spectroscopy of glycosylated N-Flo1p self-binding; details: Tris solution with 20 mM EDTA and 100 mM mannose
T3 sequence (P32768 25-271 limits assumed): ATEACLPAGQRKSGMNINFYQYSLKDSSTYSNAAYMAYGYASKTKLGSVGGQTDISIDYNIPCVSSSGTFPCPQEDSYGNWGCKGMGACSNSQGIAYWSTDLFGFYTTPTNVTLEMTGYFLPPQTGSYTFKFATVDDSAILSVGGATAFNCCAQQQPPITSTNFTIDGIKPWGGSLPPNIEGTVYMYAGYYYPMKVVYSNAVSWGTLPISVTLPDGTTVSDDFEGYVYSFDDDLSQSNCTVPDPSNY

N-Flo5p = details: cited from earlier work
N-Lg-Flo1p [4] = target: T2, N-Lg-Flo1p; details: cited from earlier work
N-Flo1p [5] = target: T3, N-Flo1p; experiment: N-Flo1p self-binding by surface plasmon resonance; details: SPR, in the presence of Ca2+
[6] = read-out: Equilibrium dissociation constant (KD) N-Flo1p, fluorescence titration, nonglycosylated N-Flo1p, this work (footnote a)

OC[C@H]1OC(O)[C@@H](O)[C@@H](O)[C@@H]1O (stereo partly drawn) [M (Man), D-mannose]
Kd (N-Flo1p [1]): 8.7 ± 0.43 mM | Affinity / interaction with N-Flo1p, in words (N-Flo1p [1]; fluorescence titration, listed as D-mannose): low-millimolar range | Affinity / interaction with N-Flo1p, in words (N-Flo1p [1]; fluorescence titration, listed as mannose): millimolar range | KD range for N-Lg-Flo1p, in words (N-Lg-Flo1p [2]): high micromolar range

O=C(O)CN(CCN(CC(=O)O)CC(=O)O)CC(=O)O [EDTA]
Effect on unbinding events of N-Flo1p self-binding (N-Flo1p [3]): longer-distance events disappeared almost completely

OC[C@H]1O[C@H](OC[C@H]2OC(O)[C@@H](O)[C@@H](O)[C@@H]2O)[C@@H](O)[C@@H](O)[C@@H]1O (stereo partly drawn) [Mα-1,6-M, α-1,6-linked mannobiose]
Kd (N-Flo1p [1]; [6]): 6.9 ± 0.64 mM | Binding to N-Flo5p, in words (N-Flo5p): No binding

OC[C@H]1O[C@H](O[C@@H]2C(O)O[C@H](CO)[C@@H](O)[C@@H]2O)[C@@H](O)[C@@H](O)[C@@H]1O (stereo partly drawn) [Mα-1,2-M, α-1,2-mannobiose]
Fold difference in binding between the mono- and disaccharides (N-Flo1p) (N-Flo1p [1]; α-1,2-mannobiose versus D-mannose): 10 fold

O=P(O)(O)OC1O[C@H](CO)[C@@H](O)[C@H](O)[C@@H]1O (some centres unmarked) [mannose-1-phosphate]
Affinity for N-Lg-Flo1p, in words (N-Lg-Flo1p [4]): micromolar-affinity

OC[C@H]1O[C@H](O[C@H]2[C@H](O)[C@@H](CO)OC(O)[C@H]2O)[C@@H](O)[C@@H](O)[C@@H]1O (stereo partly drawn) [Mα-1,3-M, α-1,3-linked mannobiose]
Kd (N-Flo1p [1]; [6]): 3.3 ± 0.34 mM | Binding to N-Flo5p, in words (N-Flo5p): No binding

OC[C@H]1OC(O)[C@H](O)[C@@H](O)[C@@H]1O (some centres unmarked) [Glc, glucose]
Affinity / interaction with N-Flo1p, in words (N-Flo1p [1]; fluorescence titration): very weakly | Binding to N-Flo5p, in words (N-Flo5p): very weakly

B1: N-deglycosylated N-Flo1p: N-Flo1p after removal of the N-glycans with endo-β-N-acetylglucosaminidase H (protein)
chain: SGATEACLPAGQRKSGMNINFYQYSLKDSSTYSNAAYMAYGYASKTKLGSVGGQTDISIDYNIPCVSSSGTFPCPQEDSYGNWGCKGMGACSNSQGIAYWSTDLFGFYTTPTNVTLEMTGYFLPPQTGSYTFKFATVDDSAILSVGGATAFNCCAQQQPPITSTNFTIDGIKPWGGSLPPNIEGTVYMYAGYYYPMKVVYSNAVSWGTLPISVTLPDGTTVSDDFEGYVYSFDDDLSQSNCTVPDPSNY
modifications: N-glycans removed with EndoH (GlcNAc residues remain); O-glycans (5 or 6 mannoses) present
Binding of N-deglycosylated N-Flo1p to immobilized N-deglycosylated N-Flo1p (N-Flo1p [5]): almost no binding
